Patent publication US9242981B2, “Fused pyrazole derivatives as novel ERK inhibitors” (Merck Sharp & Dohme Corp., priority 2010, dated 2016)

These molecules were tested against Mouse ERK2 protein (Mus musculus (Mouse), UniProt P63085) (assay: Coupled MEK1/ERK2 IMAP assay or Active ERK2 IMAP assay). Conditions: Table 1, class symbols, 30 μM ATP.
Format: biochemical
Protocol: 14 μl of kinase buffer (10 mM Tris.HCl pH 7.2, 10 mM MgCl2, 0.01% Tween-20, 1 mM DTT) containing 0.4 ng unphosphorylated Mouse ERK2 protein is added to each well of a black 384-well assay plate. […] DMSO concentration during initial incubation is 6.7%. […] DMSO concentration during ERK activation was 4%. After one hour, reactions are terminated by addition of 60 μl IMAP detections beads in binding buffer (Molecular Devices). Binding is allowed to equilibrate for 30 minutes before reading the plate on an LJL Analyst Fluorescence Polarization plate reader.
Activated ERK2 activity was also determined in the IMAP assay format using the procedure outlined above. […] Reactions proceeded for 30 minutes before termination by addition of […] IMAP detection beads in binding buffer. Plates were read as above after 30 minute binding equilibration.

Chain of Mouse ERK2 protein (P63085 whole entry): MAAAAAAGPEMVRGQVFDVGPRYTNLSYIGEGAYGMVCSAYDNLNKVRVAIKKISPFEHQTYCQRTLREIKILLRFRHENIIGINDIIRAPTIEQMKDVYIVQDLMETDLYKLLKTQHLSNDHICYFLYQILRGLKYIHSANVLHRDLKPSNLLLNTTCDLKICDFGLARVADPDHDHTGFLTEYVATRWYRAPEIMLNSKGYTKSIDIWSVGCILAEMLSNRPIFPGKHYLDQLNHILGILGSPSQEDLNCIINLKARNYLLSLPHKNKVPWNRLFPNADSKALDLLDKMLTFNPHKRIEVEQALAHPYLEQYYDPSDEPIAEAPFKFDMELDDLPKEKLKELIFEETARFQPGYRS

Structure (SMILES)	IC50 [nM]
CC1(C(=O)N[C@H]2CNC[C@@H]2c2ccccc2)CCc2[nH]nc(-c3ccncc3)c2C1 (mixture of isomers) [Compound 4, 4,5,6,7-tetrahydro-5-methyl-N-(trans-4-phenyl-3-pyrrolidinyl)-3-(4-pyridinyl)-1H-indazole-5-carboxamide (mixture of isomers)]	101 to 1000
O=C(N[C@H]1CNC[C@@H]1c1ccccc1)[C@@H]1CCc2[nH]nc(-c3ccncc3)c2C1 (racemic) [Compound 12, 4,5,6,7-tetrahydro-N-(trans-4-phenyl-3-pyrrolidinyl)-3-(4-pyridinyl)-1H-indazole-5(R)-carboxamide]	101 to 1000
O=C(N[C@H]1CNC[C@@H]1c1ccccc1)[C@H]1CCc2[nH]nc(-c3ccncc3)c2C1 (racemic) [Compound 13, 4,5,6,7-tetrahydro-N-(trans-4-phenyl-3-pyrrolidinyl)-3-(4-pyridinyl)-1H-indazole-5(S)-carboxamide]	21 to 100
O=C(N[C@H]1CNC[C@@H]1c1ccccc1)C1CCc2[nH]nc(-c3ccc4ncsc4c3)c2C1 (mixture of isomers) [Compound 43, 3-(6-benzothiazolyl)-4,5,6,7-tetrahydro-N-(trans-4-phenyl-3-pyrrolidinyl)-1H-indazole-5-carboxamide]	1000 to 100000
O=C(N[C@H]1CNC[C@@H]1c1ccccc1)[C@H]1CCc2[nH]nc(-c3ccc4ncsc4c3)c2C1 (racemic) [Compound 44, 3-(6-benzothiazolyl)-4,5,6,7-tetrahydro-N-(trans-4-phenyl-3-pyrrolidinyl)-1H-indazole-5(S)-carboxamide]	1000 to 100000
CN1C[C@@H](NC(=O)N2CCc3[nH]nc(-c4ccncc4)c3C2)[C@H](c2ccccc2-c2ccccc2)C1 (racemic) [Compound 163, N-[trans-4-[1,1′-biphenyl]-2-yl-1-methyl-3-pyrrolidinyl]-1,4,6,7-tetrahydro-3-(4-pyridinyl)-5H-pyrazolo[4,3-C]pyridine-5-carboxamide]	< 20
CC(C)(C)OC(=O)N1C[C@@H](NC(=O)N2CCc3[nH]nc(-c4ccncc4)c3C2)[C@H](c2cccc(-c3ccccc3)c2)C1 (racemic) [Compound 165, 1,1-dimethylethyl trans-3-[1,1′-biphenyl]-3-yl-4-[[[1,4,6,7-tetrahydro-3-(4-pyridinyl)-5H-pyrazolo[4,3-c]pyridin-5-yl]carbonyl]amino]-1-pyrrolidinecarboxylate]	101 to 1000
O=C(N[C@@H]1CNC[C@H]1c1cccc(-c2ccccc2)c1)N1CCc2[nH]nc(-c3ccncc3)c2C1 (racemic) [Compound 167, N-[trans-4-[1,1′-biphenyl]-3-yl-3-pyrrolidinyl]-1,4,6,7-tetrahydro-3-(4-pyridinyl)-5H-pyrazolo[4,3-c]pyridine-5-carboxamide]	< 20
CN1C[C@@H](NC(=O)N2CCc3[nH]nc(-c4ccncc4)c3C2)[C@H](c2cccc(-c3ccccc3)c2)C1 (racemic) [Compound 169, N-[trans-4-[1,1′-biphenyl]-3-yl-1-methyl-3-pyrrolidinyl]-1,4,6,7-tetrahydro-3-(4-pyridinyl)-5H-pyrazolo[4,3-c]pyridine-5-carboxamide]	< 20
O=C(N[C@@H]1CCCNC1)N1CCc2[nH]nc(-c3ccncc3)c2C1 (single isomer, unassigned) [Compound 171]	101 to 1000
CCn1cc(Cl)c(NC(=O)C2CCc3[nH]nc(-c4ccncc4)c3C2)n1 (stereo not shown) [Compound 2, N-(4-chloro-1-ethyl-1H-pyrazol-3-yl)-4,5,6,7-tetrahydro-3-(4-pyridinyl)-1H-indazole-5-carboxamide]	1000 to 100000
COc1cccc(CC(=O)N2CCc3[nH]nc(-c4ccncc4)c3C2)c1 [Compound 3, 4,5,6,7-tetrahydro-5-[(3-methoxyphenyl)acetyl]-3-(4-pyridinyl)-1H-pyrazolo[4,3-c]pyridine]	1000 to 100000

Now from value to molecule:

IC50 [nM]	Structure (SMILES)
101 to 1000	O=C(NC1CN(Cc2c(F)cccc2F)CCC1F)N1CCc2[nH]nc(-c3ccc4nccn4c3)c2C1 (mixture of isomers) [Compound 156, N-[cis/trans-1-[(2,6-difluorophenyl)methyl]-4-fluoro-3-piperidinyl]-1,4,6,7-tetrahydro-3-imidazo[1,2-a]pyridin-6-yl-5H-pyrazolo[4,3-c]pyridine-5-carboxamide]
101 to 1000	Cc1cc(-c2n[nH]c3c2CN(C(=O)NC2CN(Cc4c(F)cccc4F)CCC2F)CC3)ccn1 (mixture of isomers) [Compound 158, N-[cis/trans-1-[(2,6-difluorophenyl)methyl]-4-fluoro-3-piperidinyl]-1,4,6,7-tetrahydro-3-(2-methyl-4-pyridinyl)-5H-pyrazolo[4,3-c]pyridine-5-carboxamide]
< 20	Cc1ccccc1[C@@H]1CN(C)C[C@H]1NC(=O)N1CCc2[nH]nc(-c3ccc(F)cc3)c2C1 (racemic) [Compound 141, 3-(4-fluorophenyl)-1,4,6,7-tetrahydro-N-[trans-1-methyl-4-(2-methylphenyl)-3-pyrrolidinyl]-5H-pyrazolo[4,3-c]pyridine-5-carboxamide]
< 20	O=C(N[C@@H]1CCC[C@H]1c1ccccc1)N1CCc2[nH]nc(-c3ccncc3)c2C1 (racemic) [Compound 143, 1,4,6,7-tetrahydro-N-[trans-2-phenylcyclopentyl]-3-(4-pyridinyl)-5H-pyrazolo[4,3-c]pyridine-5-carboxamide]
< 20	CN1C[C@@H](NC(=O)N2CCc3[nH]nc(-c4ccncc4)c3C2)[C@H](c2ccccc2C(F)(F)F)C1 (racemic) [Compound 149, 1,4,6,7-tetrahydro-N-[trans-1-methyl-4-[2-(trifluoromethyl)phenyl]-3-pyrrolidinyl]-3-(4-pyridinyl)-5H-pyrazolo[4,3-c]pyridine-5-carboxamide]
< 20	CN1C[C@@H](NC(=O)N2CCc3[nH]nc(-c4ccc(F)cc4)c3C2)[C@H](c2ccccc2C(F)(F)F)C1 (racemic) [Compound 151, 3-(4-fluorophenyl)-1,4,6,7-tetrahydro-N-[trans-1-methyl-4-[2-(trifluoromethyl)phenyl]-3-pyrrolidinyl]-5H-pyrazolo[4,3-c]pyridine-5-carboxamide]
< 20	CN1C[C@@H](NC(=O)N2CCc3[nH]nc(-c4ccc5c(c4)CCO5)c3C2)[C@H](c2ccccc2C(F)(F)F)C1 (racemic) [Compound 153, 3-(2,3-dihydro-5-benzofuranyl)-1,4,6,7-tetrahydro-N-[trans-1-methyl-4-[2-(trifluoromethyl)phenyl]-3-pyrrolidinyl]-5H-pyrazolo[4,3-c]pyridine-5-carboxamide]
< 20	CCn1cc(-c2n[nH]c3c2CN(C(=O)N[C@@H]2CN(C)C[C@H]2c2ccccc2C(F)(F)F)CC3)cn1 (racemic) [Compound 155, 3-(1-ethyl-1H-pyrazol-4-yl)-1,4,6,7-tetrahydro-N-[trans1-methyl-4-[2-(trifluoromethyl)phenyl]-3-pyrrolidinyl]-5H-pyrazolo[4,3-c]pyridine-5-carboxamide]
< 20	Cc1ccc([C@@H]2CNC[C@H]2NC(=O)N2CCc3[nH]nc(-c4ccncc4)c3C2)cc1 (racemic) [Compound 157, 1,4,6,7-tetrahydro-N-[trans-4-(4-methylphenyl)-3-pyrrolidinyl]-3-(4-pyridinyl)-5H-pyrazolo[4,3-c]pyridine-5-carboxamide]
< 20	Cc1ccc(C2CN(C)CC2NC(=O)N2CCc3[nH]nc(-c4ccncc4)c3C2)cc1 (racemic) [Compound 159, 1,4,6,7-tetrahydro-N-[trans-1 methyl-4-(4-methylphenyl)-3-pyrrrolidinyl]-3-(4-pyridinyl)-5H-pyrazolo[4,3-c]pyridine-5-carboxamide]
< 20	CCN1C[C@@H](NC(=O)N2CCc3[nH]nc(-c4ccncc4)c3C2)[C@H](c2ccc(C)cc2)C1 (racemic) [Compound 161, N-[trans-1-ethyl-4-(4-methylphenyl)-3-pyrrolidinyl]-1,4,6,7-tetrahydro-3-(4-pyridinyl)-5H-pyrazolo[4,3-c]pyridine-5-carboxamide]
< 20	O=C(N[C@@H]1CCCN(Cc2ccccc2)C1)N1CCc2[nH]nc(-c3ccncc3)c2C1 (single isomer, unassigned) [Compound 175]
101 to 1000	O=C(NC1CC[C@H]2CC[C@@H]1N2Cc1c(F)cccc1F)N1CCc2[nH]nc(-c3ccc4nccn4c3)c2C1 (stereo in doubt) [Compound 182, N-[8-[(2,6-difluorophenyl)methyl]-8-azabicyclo[3.2.1]oct-2-yl]-1,4,6,7-tetrahydro-3-imidazo[1,2-a]pyridin-6-yl-5H-pyrazolo[4,3-c]pyridine-5-carboxamide]

Same assay, conditions: Table 2, 30 μM ATP

IC50 [nM]	Structure (SMILES)
1.16	O=C(N[C@H]1CNC[C@@H]1c1ccccc1)N1CCc2[nH]nc(-c3ccncc3)c2C1 (racemic) [Compound 37, 1,4,6,7-tetrahydro-N-(trans-4-phenyl-3-pyrrolidinyl)-3-(4-pyridinyl)-5H-pyrazolo[4,3-c]pyridine-5-carboxamide]
1.52	Cc1ccccc1[C@@H]1CN(C)C[C@H]1NC(=O)N1CCc2[nH]nc(-c3ccc4c(c3)CCO4)c2C1 (racemic) [Compound 145, 3-(2,3-dihydro-5-benzofuranyl)-1,4,6,7-tetrahydro-N-[trans-1-methyl-4-(2-methylphenyl)-3-pyrrolidinyl]-5H-pyrazolo[4,3-c]pyridine-5-carboxamide]
1.9	CCn1cc(-c2n[nH]c3c2CN(C(=O)NC2CN(C)CC2c2ccccc2C)CC3)cn1 (racemic) [Compound 147, 3-(1-ethyl-1H-pyrazoI-4-yl)-1,4,6,7-tetrahydro-N-ttrans-1-methyl-4-(2-methylphenyl)-3-pyrrolidinyl]-5H-pyrazolo[4,3-c]pyridine-5-carboxamide]
